According to patent publication US20110002855A1 (NEUROGEN CORPORATION, priority 2007, published 2011):

Molecular target: T1, chimeric human H3 receptor (Homo sapiens, UniProt Q9Y5N1)
T1 construct: made in house; host or cells: Sf9 insect cells (baculovirus); P2 membrane preparation
Assay: Chimeric human H3 receptor GTP binding assay (Example 7)
Type: biochemical
Settings: agonist (1 μM histamine)-stimulated GTP-gamma35S binding, P2 membranes of Sf9 cells; Ki from IC50 by Cheng-Prusoff
Excerpt: This Example illustrates a representative assay for evaluating agonist-stimulated GTP-gamma^35S binding (“GTP binding”) activity. […] This agonist-stimulated GTP binding activity can also be used to detect partial agonism mediated by antagonist compounds. A compound analyzed in this assay is referred to herein as a “test compound.”
Four independent baculoviral stocks (one directing the expression of the chimeric human H3 receptor and three directing the expression of each of the three subunits of a heterotrimeric G-protein) are used to infect a culture of Sf9 cells as described above. P2 membranes are prepared as described above, and agonist-stimulated GTP binding on the P2 membranes is assessed using histamine (Sigma Chemical Co., St. Louis, Mo.) as agonist in order to ascertain that the receptor/G-protein-alpha-beta-gamma combination(s) yield a functional response as measured by GTP binding. P2 membranes are resuspended by Dounce homogenization (tight pestle) in GTP binding assay buffer (50 mM Tris pH 7.4, 120 mM NaCl, 5 mM MgCl2, 2 mM EGTA, 1 mg/ml BSA, 0.2 mg/ml bacitracin, 0.02 mg/ml aprotinin, 0.01 mg/ml saponin, 10 μM GDP) and added to assay tubes at a concentration of 35 μg protein/reaction tube. After adding increasing doses of histamine at concentrations ranging from 10^−12 M to 10^−5 M, reactions are initiated by the addition of 125 pM GTP-gamma^35S (PERKIN ELMER; Boston, Mass.) with a final assay volume of 0.20 ml. In competition experiments, non-radiolabeled test compounds are added to separate reactions at concentrations ranging from 10^−10 M to 10^−6M along with 1 μM histamine to yield a final volume of 0.20 ml.
Neutral antagonists are antagonists that are substantially free of inherent agonist activity, and include those test compounds that reduce the histamine-stimulated GTP binding activity towards, but not below, baseline levels. In contrast, in the absence of added histamine, inverse agonists reduce the GTP binding activity of the receptor-containing membranes below baseline.
After a 60-min incubation at room temperature, reactions are terminated by vacuum filtration over WHATMAN GF/C filters (pre-soaked in wash buffer, 0.1% BSA) followed by washing with ice-cold wash buffer (50 mM Tris pH 7.4, 120 mM NaCl). The amount of receptor-bound (and thereby membrane-bound) GTE-gamma^35S is determined by measuring the filter-bound radioactivity, preferably by liquid scintillation spectrometry of the washed filters. Non-specific binding is determined in parallel assays including 10 μM unlabeled GTP-gammaS and typically represents less than 5 percent of total binding. Data is expressed as percent above basal (baseline). The results of GTP binding experiments are analyzed using SIGMAPLOT software (SPSS Inc., Chicago, Ill.). IC50 values are calculated by non-linear regression analysis of dose-response curves using Kaleidograph (Synergy Software, Reading, Pa.).
Alternatively the data is analyzed as follows. First, the average bound radioactivity from negative control wells (no agonist) is subtracted from the bound radioactivity detected for each of the other experimental wells. Second, average bound radioactivity is calculated for the positive control wells (agonist wells). Then, percent inhibition for each compound tested is calculated using the equation:
Calculated IC50 values are converted to Ki values by the Cheng-Prusoff correction (Cheng and Prusoff (1973) Biochem. Pharmacol. 22(23):3099-3108). Accordingly, the following equation: Ki=IC50/(1+[L]/EC50) is used, where [L] is the histamine concentration in the GTP binding assay, and EC50 is the concentration of histamine producing a 50% response, as determined by a dose-response analysis using concentrations of histamine ranging from 10^−10 M to 10^−6M. […]

T1 sequence (Q9Y5N1 with tags, fused parts or gaps): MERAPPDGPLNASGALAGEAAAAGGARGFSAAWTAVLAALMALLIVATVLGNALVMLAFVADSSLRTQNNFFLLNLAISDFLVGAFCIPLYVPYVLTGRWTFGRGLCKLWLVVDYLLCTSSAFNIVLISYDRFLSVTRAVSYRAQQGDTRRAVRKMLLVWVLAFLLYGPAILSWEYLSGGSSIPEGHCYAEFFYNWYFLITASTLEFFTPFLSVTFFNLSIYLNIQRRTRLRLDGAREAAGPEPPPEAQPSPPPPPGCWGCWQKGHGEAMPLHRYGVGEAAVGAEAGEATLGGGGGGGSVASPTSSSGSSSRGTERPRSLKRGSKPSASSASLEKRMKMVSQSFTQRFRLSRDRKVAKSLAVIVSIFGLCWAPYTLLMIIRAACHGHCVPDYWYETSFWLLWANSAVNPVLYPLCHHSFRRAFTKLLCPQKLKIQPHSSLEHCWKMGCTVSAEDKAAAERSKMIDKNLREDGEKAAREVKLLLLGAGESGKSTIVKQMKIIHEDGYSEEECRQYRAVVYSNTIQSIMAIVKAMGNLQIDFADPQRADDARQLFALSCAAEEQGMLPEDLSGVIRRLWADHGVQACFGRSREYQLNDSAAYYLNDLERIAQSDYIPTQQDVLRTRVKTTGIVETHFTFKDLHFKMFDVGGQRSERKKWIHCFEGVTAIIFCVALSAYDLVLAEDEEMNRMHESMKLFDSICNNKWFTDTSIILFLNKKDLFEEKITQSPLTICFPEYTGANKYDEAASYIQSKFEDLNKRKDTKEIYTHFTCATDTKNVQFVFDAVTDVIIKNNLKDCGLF

SMILES | Ki [nM]
COc1ccc2[nH]c3c(c2c1)CCN(CC(=O)N1CCN(C2CCC2)CC1)C3 [Compound 18, 2-[2-(4-Cyclobutylpiperazin-1-yl)-2-oxoethyl]-6-methoxy-2,3,4,9-tetrahydro-1H-beta-carboline] | < 1000
Cc1ccc2[nH]c3c(c2c1)CCN(CC(=O)N1CCN(C2CCC2)CC1)C3 [Compound 20, 2-[2-(4-Cyclobutylpiperazin-1-yl)-2-oxoethyl]-6-methyl-2,3,4,9-tetrahydro-1H-beta-carboline] | < 1000
O=C(CN1CCc2c([nH]c3ccc(Br)cc23)C1)N1CCN(C2CCC2)CC1 [Compound 22, 6-Bromo-2-[2-(4-cyclobutylpiperazin-1-yl)-2-oxoethyl]-2,3,4,9-tetrahydro-1H-beta-carboline] | < 1000
O=C(CN1CCc2c([nH]c3cccc(F)c23)C1)N1CCN(C2CCC2)CC1 [Compound 26, 2-[2-(4-Cyclobutylpiperazin-1-yl)-2-oxoethyl]-5-fluoro-2,3,4,9-tetrahydro-1H-beta-carboline] | < 1000
O=C(CN1CCc2c([nH]c3cc(-c4cncnc4)ccc23)C1)N1CCN(C2CCC2)CC1 [Compound 27, 2-[2-(4-Cyclobutylpiperazin-1-yl)-2-oxoethyl]-7-pyrimidin-5-yl-2,3,4,9-tetrahydro-1H-beta-carboline] | < 1000
O=C(CN1CCc2c(n(CC(F)(F)F)c3ccccc23)C1)N1CCN(C2CCC2)CC1 [Compound 31, 2-[2-(4-Cyclobutylpiperazin-1-yl)-2-oxoethyl]-9-(2,2,2-trifluoroethyl)-2,3,4,9-tetrahydro-1H-beta-carboline] | < 1000
O=C(CN1CCc2c([nH]c3ccccc23)C1)N1CCN2CCCCC2C1 (stereo not drawn) [Compound 32, 2-[2-(Octahydro-2H-pyrido[1,2-a]pyrazin-2-yl)-2-oxoethyl]-2,3,4,9-tetrahydro-1H-beta-carboline] | < 1000
CC1CCCC2CN(C(=O)CN3CCc4c([nH]c5ccccc45)C3)CCN12 (stereo not drawn) [Compound 33, 2-[2-(6-Methyloctahydro-2H-pyrido[1,2-a]pyrazin-2-yl)-2-oxoethyl]-2,3,4,9-tetrahydro-1571H-beta-carboline] | < 1000

Results, then the compound that gave them:

Ki [nM] | SMILES
< 1000 | COc1ccc2c(c1)c1c(n2C)CN(CC(=O)N2CCN(C3CCC3)CC2)CC1 [Compound 19, 2-[2-(4-Cyclobutylpiperazin-1-yl)-2-oxoethyl]-6-methoxy-9-methyl-2,3,4,9-tetrahydro-1H-beta-carboline]
< 1000 | O=C(CN1CCc2c([nH]c3ccc(F)cc23)C1)N1CCN(C2CCC2)CC1 [Compound 21, 2-[2-(4-Cyclobutylpiperazin-1-yl)-2-oxoethyl]-6-fluoro-2,3,4,9-tetrahydro-1H-beta-carboline]
< 1000 | Cn1c2c(c3cc(F)ccc31)CCN(CC(=O)N1CCN(C3CCC3)CC1)C2 [Compound 23, 2-[2-(4-Cyclobutylpiperazin-1-yl)-2-oxoethyl]-6-fluoro-9-methyl-2,3,4,9-tetrahydro-1H-beta-carboline]
< 1000 | O=C(CN1CCc2c([nH]c3cc(F)ccc23)C1)N1CCN(C2CCC2)CC1 [Compound 24, 2-[2-(4-Cyclobutylpiperazin-1-yl)-2-oxoethyl]-7-fluoro-2,3,4,9-tetrahydro-1H-beta-carboline]
< 1000 | O=C(CN1CCc2c([nH]c3c(F)cccc23)C1)N1CCN(C2CCC2)CC1 [Compound 25, 2-[2-(4-Cyclobutylpiperazin-1-yl)-2-oxoethyl]-8-fluoro-2,3,4,9-tetrahydro-1H-beta-carboline]
< 1000 | CCn1c2c(c3ccccc31)CCN(CC(=O)N1CCN(C3CCC3)CC1)C2 [Compound 28, 2-[2-(4-Cyclobutylpiperazin-1-yl)-2-oxoethyl]-9-ethyl-2,3,4,9-tetrahydro-1H-beta-carboline]
< 1000 | CCCn1c2c(c3ccccc31)CCN(CC(=O)N1CCN(C3CCC3)CC1)C2 [Compound 29, 2-[2-(4-Cyclobutylpiperazin-1-yl)-2-oxoethyl]-9-propyl-2,3,4,9-tetrahydro-1H-beta-carboline]
< 1000 | CC(C)n1c2c(c3ccccc31)CCN(CC(=O)N1CCN(C3CCC3)CC1)C2 [Compound 30, 2-[2-(4-Cyclobutylpiperazin-1-yl)-2-oxoethyl]-9-isopropyl-2,3,4,9-tetrahydro-1H-beta-carboline]
